Experimental data taken from US7057052B2, “Heterocyclic quinones as pharmaceutical agents” (Duke University, priority 2002, dated 2006).
Like-named read-outs stand apart in the source and are kept apart here.

How the values were obtained:
Assay type in all cases: biochemical
Cdc25B = target: T1, Cdc25B (Homo sapiens, UniProt P30305); experiment: Cdc25B phosphatase inhibition (50 μM screen, 3 pt. and 8 pt. IC-50); settings: for IC50: Cdc25B; for inhibition at 50 µM: read-out: Percent Inhibition at 50 uM compound, Cdc25 B
T1 sequence (P30305 1-580): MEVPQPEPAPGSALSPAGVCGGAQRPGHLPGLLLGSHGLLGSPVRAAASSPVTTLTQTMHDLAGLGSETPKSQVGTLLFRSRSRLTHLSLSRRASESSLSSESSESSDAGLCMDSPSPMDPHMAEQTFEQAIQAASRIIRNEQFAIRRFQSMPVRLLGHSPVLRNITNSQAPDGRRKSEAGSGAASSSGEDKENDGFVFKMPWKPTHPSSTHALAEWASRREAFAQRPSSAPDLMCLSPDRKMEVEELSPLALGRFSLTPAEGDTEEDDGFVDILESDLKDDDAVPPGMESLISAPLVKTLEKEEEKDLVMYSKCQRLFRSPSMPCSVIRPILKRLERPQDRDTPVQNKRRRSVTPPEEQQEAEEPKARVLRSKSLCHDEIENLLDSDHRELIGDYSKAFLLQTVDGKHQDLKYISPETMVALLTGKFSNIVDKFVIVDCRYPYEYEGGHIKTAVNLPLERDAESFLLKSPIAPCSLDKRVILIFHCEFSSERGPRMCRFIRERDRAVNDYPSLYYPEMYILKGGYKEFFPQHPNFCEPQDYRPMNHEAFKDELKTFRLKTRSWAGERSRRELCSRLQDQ
Procedure: (§1) Using procedures known to those skilled in the art, the compounds listed in Table 3 were screened against Cdc25A, Cdc25B, and Cdc25C at 50 μM. […] To analyze these effects further, the compounds were then screened against Cdc25B in a 3 pt. IC-50, using 1, 7 and 50 μM. Several of the compounds were also screened with an 8 pt. IC-50 process, using 0.1–10 μM, allowing determination of Hill slopes.

Cdc25C = target: T2, Cdc25C (Homo sapiens, UniProt P30307); experiment: Cdc25C phosphatase inhibition screen at 50 μM; settings: read-out: Percent Inhibition at 50 uM compound, Cdc25 C
T2 sequence (P30307 1-473): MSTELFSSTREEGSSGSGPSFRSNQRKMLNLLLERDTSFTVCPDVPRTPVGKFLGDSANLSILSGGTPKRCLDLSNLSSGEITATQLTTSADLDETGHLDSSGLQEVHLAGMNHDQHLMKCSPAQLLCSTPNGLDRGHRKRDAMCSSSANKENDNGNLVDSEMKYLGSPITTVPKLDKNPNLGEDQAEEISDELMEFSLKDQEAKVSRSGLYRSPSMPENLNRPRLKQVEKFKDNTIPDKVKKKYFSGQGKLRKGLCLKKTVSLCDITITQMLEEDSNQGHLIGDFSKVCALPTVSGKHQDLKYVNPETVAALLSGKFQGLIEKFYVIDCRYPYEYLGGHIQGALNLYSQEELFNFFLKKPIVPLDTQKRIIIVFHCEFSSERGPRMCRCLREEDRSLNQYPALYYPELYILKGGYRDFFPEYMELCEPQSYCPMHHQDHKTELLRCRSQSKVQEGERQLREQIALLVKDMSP
Procedure: as §1

Cdc25A = target: T3, Cdc25A (Homo sapiens, UniProt P30304); experiment: Cdc25A phosphatase inhibition screen at 50 μM; settings: read-out: Percent Inhibition at 50 uM compound, Cdc25 A
T3 sequence (P30304 1-524): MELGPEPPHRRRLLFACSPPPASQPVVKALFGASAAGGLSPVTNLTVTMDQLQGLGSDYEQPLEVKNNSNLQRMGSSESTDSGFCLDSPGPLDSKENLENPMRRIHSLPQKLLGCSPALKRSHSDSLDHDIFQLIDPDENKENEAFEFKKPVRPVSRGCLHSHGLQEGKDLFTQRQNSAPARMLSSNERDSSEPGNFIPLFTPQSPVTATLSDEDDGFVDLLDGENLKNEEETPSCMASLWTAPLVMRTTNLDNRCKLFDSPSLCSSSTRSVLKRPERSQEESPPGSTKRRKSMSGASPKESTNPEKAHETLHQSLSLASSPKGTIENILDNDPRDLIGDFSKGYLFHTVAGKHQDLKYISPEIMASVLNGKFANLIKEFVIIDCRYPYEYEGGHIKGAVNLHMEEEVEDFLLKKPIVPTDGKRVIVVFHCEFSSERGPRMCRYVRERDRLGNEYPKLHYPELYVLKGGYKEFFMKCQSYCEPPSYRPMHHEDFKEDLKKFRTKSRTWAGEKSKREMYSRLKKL
Procedure: as §1

[1] = 3 pt. IC-50 using 1, 7 and 50 μM, read-out: IC50 (3 pt)
[2] = 8 pt. IC-50 using 0.1–10 μM, read-out: IC50 (8 pt)

Row | Compound | IC50 (Cdc25B; [1]) [µM] | inhibition at 50 µM (Cdc25B) [%] | inhibition at 50 µM (Cdc25C) [%] | inhibition at 50 µM (Cdc25A) [%] | IC50 (Cdc25B; [2]) [µM]
1 | CCCc1cccc2c(C3=C(O)C(=O)C=C(O)C3=O)c[nH]c12 [6A, 2,5-dihydroxy-3-(7-propyl-1H-indol-3-yl)-[1,4]-benzoquinone] | 14.1 | 23 | 79 | 93 | 
2 | O=C1C=C(O)C(=O)C(c2c(C3CC3)[nH]c3ccccc23)=C1O [2E, 2,5-dihydroxy-3-(2-cyclopropyl-1H-indol-3-yl)-[1,4]-benzoquinone] | 2.3 | 32 | 0 | 79 | 24.4
3 | C=CC(C)(C)c1[nH]c2ccccc2c1C1=C(O)C(=O)C=C(O)C1=O [3C, 2,5-dihydroxy-3-[2-(1,1-dimethyl-allyl)-1H-indol-3-yl]-[1,4]-benzoquinone] | 40.3 | 0 | 21 | 40 | 
4 | CCc1[nH]c2ccccc2c1C1=C(O)C(=O)C=C(O)C1=O [2D, 2,5-dihydroxy-3-(2-ethyl-1H-indol-3-yl)-[1,4]-benzoquinone] | 33.4 | 36 | 14 | 51 | 
5 | Cc1ccc2c(C3=C(O)C(=O)C=C(O)C3=O)c[nH]c2c1 [5D, 2,5-dihydroxy-3-(6-methyl-1H-indol-3-yl)-[1,4]-benzoquinone] | 32.3 | 16 | 28 | 80 | 
6 | CC(C)=CCCC(C)=CCCC(C)=CCc1cccc2c(C3=C(O)C(=O)C=C(O)C3=O)c[nH]c12 [6D, 2,5-dihydroxy-3-(7-farnecyl-1H-indol-3-yl)-[1,4]-benzoquinone] | 0.1 | 89 | 85 | 86 | 0.5
7 | O=C1C=C(O)C(=O)C(c2c[nH]c3ccc(OCc4ccccc4)cc23)=C1O [4G, 2,5-dihydroxy-3-(5-benzyloxy-1H-indol-3-yl)-[1,4]-benzoquinone] | 1.8 | 50 | 26 | 96 | 
8 | COc1cccc2c(C3=C(O)C(=O)C=C(O)C3=O)c[nH]c12 [7A, 2,5-dihydroxy-3-(7-methoxy-1H-indol-3-yl)-[1,4]-benzoquinone] | 79.5 | 15 | 13 | 36 | 
9 | CC(C)(C)c1[nH]c2ccccc2c1C1=C(O)C(=O)C=C(O)C1=O [2H, 2,5-dihydroxy-3-(2-tert-butyl-1H-indol-3-yl)-[1,4]-benzoquinone] | 13.9 | 11 | 0 | 31 | 
10 | Cc1ccc2[nH]c(C)c(C3=C(O)C(=O)C=C(O)C3=O)c2c1 [7C, 2,5-dihydroxy-3-(2,5-dimethyl-1H-indol-3-yl)-[1,4]-benzoquinone] | 16.5 | 20 | 25 | 61 | 
11 | COc1cccc2[nH]cc(C3=C(O)C(=O)C=C(O)C3=O)c12 [3G, 2,5-dihydroxy-3-(4-methoxy-1H-indol-3-yl)-[1,4]-benzoquinone] | 7.2 | 21 | 19 | 77 | 
12 | CC1(c2[nH]c3ccccc3c2C2=C(O)C(=O)C=C(O)C2=O)CCCCC1 [3A, 2,5-dihydroxy-3-[2-(1-methylcyclohexyl)-1H-indol-3-yl]-[1,4]-benzoquinone] | 82.9 | 11 | 22 | 69 | 
13 | O=C1C=C(O)C(=O)C(c2c(-c3ccccc3)[nH]c3ccccc23)=C1O [3B, 2,5-dihydroxy-3-(2-phenyl-1H-indol-3-yl)-[1,4]-benzoquinone] | 22.2 | 38 | 18 | 93 | 
14 | COc1ccc2[nH]cc(C3=C(O)C(=O)C=C(O)C3=O)c2c1 [4F, 2,5-dihydroxy-3-(5-methoxy-1H-indol-3-yl)-[1,4]-benzoquinone] | 6 | 0 | 0 | 15 | 
15 | Cc1cccc2[nH]cc(C3=C(O)C(=O)C=C(O)C3=O)c12 [4A, 2,5-dihydroxy-3-(4-methyl-1H-indol-3-yl)-[1,4]-benzoquinone] | 6 | 9 | 28 | 51 | 
16 | O=C1C=C(O)C(=O)C(c2c[nH]c3cccc(OCc4ccccc4)c23)=C1O [3H, 2,5-dihydroxy-3-(4-benzyloxy-1H-indol-3-yl)-[1,4]-benzoquinone] | 4.6 | 0 | 2 | 87 | 
17 | Cc1[nH]c2ccccc2c1C1=C(O)C(=O)C=C(O)C1=O [2C, 2,5-dihydroxy-3-(2-methyl-1H-indol-3-yl)-[1,4]-benzoquinone] | 138 | 9 | 5 | 35 | 
18 | CC1(c2[nH]c3ccccc3c2C2=C(O)C(=O)C=C(O)C2=O)CC1 [2G, 2,5-dihydroxy-3-[2-(1-methylcycloproyl)-1H-indol-3-yl]-[1,4]-benzoquinone] | 3.6 | 17 | 0 | 49 | 
19 | O=C1C=C(O)C(=O)C(c2c[nH]c3cccc(Br)c23)=C1O [3F, 2,5-dihydroxy-3-(4-bromo-1H-indol-3-yl)-[1,4]-benzoquinone] | 3.1 | 6 | 54 | 0 | > 2
20 | O=C1C=C(O)C(=O)C(c2c[nH]c3cc4c(cc23)OCO4)=C1O [7H, 2,5-dihydroxy-3-(5,6-methylenedioxy-1H-indol-3-yl)-[1,4]-benzoquinone] | 3.7 | 88 | 63 | 96 | 
21 | COc1cc2[nH]cc(C3=C(O)C(=O)C=C(O)C3=O)c2cc1OC [8A, 2,5-dihydroxy-3-(5,6-dimethoxy-1H-indol-3-yl)-[1,4]-benzoquinone] | 117 | 19 | 20 | 39 | 
22 | O=C1C=C(O)C(=O)C(c2c[nH]c3c(-c4ccccc4)cccc23)=C1O [6H, 2,5-dihydroxy-3-(7-phenyl-1H-indol-3-yl)-[1,4]-benzoquinone] | 1.4 | 92 | 91 | 98 | 
23 | COC1=CC(=O)C(OC)=C(c2c[nH]c3c(F)cccc23)C1=O [5E, 2,5-dimethoxy-3-(7-fluoro-1H-indol-3-yl)-[1,4]-benzoquinone] | 125 | 67 | 68 | 29 | 
24 | CC(C)=CCc1cccc2c(C3=C(O)C(=O)C=C(O)C3=O)c[nH]c12 [6B, 2,5-dihydroxy-3-(7-prenyl-1H-indol-3-yl)-[1,4]-benzoquinone] | 2.1 | 99 | 84 | 100 | 
